According to PubChem BioAssay AID1259408 (Genetic Toxicology Data Bank (GENE-TOX), 2018):
Active and inactive are the calls of the source. No rule for the calls is given here.

Test system: GENE-TOX genotoxicity assays, various organisms and cells
Test: GENE-TOX mutagenicity studies
Conditions: for call: Assay Type: In vivo carcinogenicity studies
[1] = Species/Cell Type: Chinese hamster ovary (CHO) cells, Assay Type: Forward gene mutation at the HPRT locus, Assay Code: CHO+, Evaluation Type: Evaluation B (Post-1980)
[2] = Species/Cell Type: Nonhuman, Assay Code: CCG+, Evaluation Type: Evaluation A (Pre-1980)
[3] = Species/Cell Type: Nonhuman, Assay Type: Sister-chromatid exchange (SCE) in vitro, Assay Code: SC2+, Evaluation Type: Evaluation B (Post-1980)
[4] = Species/Cell Type: Mammalian polychromatic erythrocytes, Assay Type: Micronucleus test, chromosome aberrations, Assay Code: MNTT, Evaluation Type: Evaluation A (Pre-1980)
[5] = Species/Cell Type: Mouse, Sex: Male, Assay Type: Sperm morphology, Assay Code: SPI-, Evaluation Type: Evaluation A (Pre-1980)
[6] = Species/Cell Type: Nonhuman, Assay Type: Sister-chromatid exchange (SCE) in vitro, Assay Code: SC2T, Evaluation Type: Evaluation B (Post-1980)
[7] = Species/Cell Type: Salmonella typhimurium (one or more of the five standard strains: TA98, TA100, TA1535, TA1537, and TA1538), Assay Type: Histidine reverse gene mutation, Ames assay, Assay Code: SALT, Evaluation Type: Evaluation A (Pre-1980)
[8] = Species/Cell Type: Vicia faba, Assay Type: Chromosome aberrations, Assay Code: VIC+, Evaluation Type: Evaluation A (Pre-1980)
[9] = Species/Cell Type: Nonhuman, Assay Type: Sister-chromatid exchange (SCE) in vitro, Assay Code: SC2+D, Dose Response: With dose response, Evaluation Type: Evaluation B (Post-1980)

For `O=C(O)CCCc1ccc(N(CCCl)CCCl)cc1`, the mutagenic call [1] was “active; positive”, the mutagenic call (Species/Cell Type: Drosophila melanogaster, Assay Type: Sex-linked recessive lethal gene mutation, Assay Code: SRL+, Evaluation Type: Evaluation A (Pre-1980)) was “active; positive” and the mutagenic call (Species/Cell Type: Human lymphocytes, Assay Type: Sister-chromatid exchange (SCE) in vitro, Assay Code: SCL+D, Dose Response: With dose response, Evaluation Type: Evaluation A (Pre-1980)) was “active; positive”. The mutagenic call (Species/Cell Type: Human lymphocytes, Assay Type: Sister-chromatid exchange (SCE) in vitro, Assay Code: SCL+D, Dose Response: With dose response, Evaluation Type: Evaluation B (Post-1980)) was “active; positive”, the mutagenic call (Species/Cell Type: Human lymphocytes, Assay Type: Sister-chromatid exchange (SCE) in vivo, Assay Code: SCY+, Evaluation Type: Evaluation B (Post-1980)) was “active; positive” and the mutagenic call (Species/Cell Type: Human, Assay Type: Sister-chromatid exchange (SCE) in vitro, Assay Code: SC1+D, Dose Response: With dose response, Evaluation Type: Evaluation A (Pre-1980)) was “active; positive”. For the same compound, the mutagenic call (Species/Cell Type: Human, Assay Type: Sister-chromatid exchange (SCE) in vitro, Assay Code: SC1+D, Dose Response: With dose response, Evaluation Type: Evaluation B (Post-1980)) was “active; positive”, the mutagenic call (Species/Cell Type: Human, Sex: Male, Assay Type: Sperm morphology, Assay Code: SPH+, Evaluation Type: Evaluation A (Pre-1980)) was “active; positive” and the mutagenic call (Species/Cell Type: Mammalian polychromatic erythrocytes, Assay Type: Micronucleus test, chromosome aberrations, Assay Code: MNT+, Evaluation Type: Evaluation B (Post-1980)) was “active; positive”. The call [2] was “active; positive”, the mutagenic call [3] was “active; positive” and the mutagenic call (Species/Cell Type: Saccharomyces cerevisiae, Assay Type: Mitotic recombination or gene conversion, Assay Code: YEC+, Evaluation Type: Evaluation A (Pre-1980)) was “active; positive”. The mutagenic call (Species/Cell Type: Saccharomyces cerevisiae, Assay Type: Reverse gene mutation, Assay Code: YER+, Evaluation Type: Evaluation A (Pre-1980)) was “active; positive”.

With `Cc1c2ccccc2c(C)c2ccccc12` the mutagenic call [4] was “no conclusion”, the mutagenic call [5] was “inactive; negative” and the mutagenic call [3] was “active; positive”. For the same compound, the mutagenic call (Species/Cell Type: Salmonella typhimurium (one or more of the five standard strains: TA98, TA100, TA1535, TA1537, and TA1538), Assay Type: Histidine reverse gene mutation, Ames assay, Assay Code: SAL+*, Activation: With metabolic activation, Evaluation Type: Evaluation A (Pre-1980)) was “active; positive”.

For `ClCc1ccccn1`, the call (Species/Cell Type: Nonhuman, Assay Code: CCG-L, Evaluation Type: Evaluation A (Pre-1980)) was “inactive; negative”.

For `Nc1ccc2c(c1)-c1ccccc1C2`, the mutagenic call (Species/Cell Type: Fischer rat embryo (RLV/1706) cells, Assay Type: Cell transformation, viral enhanced, Assay Code: CTR-, Evaluation Type: Evaluation A (Pre-1980)) was “inactive; negative”.

For `N#Cc1c(Cl)c(Cl)c(Cl)c(C#N)c1Cl`, the mutagenic call (Species/Cell Type: Hordeum vulgare (barley), Assay Type: Chromosome aberrations, Assay Code: HOC-, Evaluation Type: Evaluation A (Pre-1980)) was “inactive; negative” and the call (Species/Cell Type: Nonhuman, Assay Code: CCG+L, Evaluation Type: Evaluation A (Pre-1980)) was “active; positive”.

With `O=C(O)C(=O)c1ccc(Cl)cc1` the mutagenic call (Species/Cell Type: Nonhuman, Assay Type: Sister-chromatid exchange (SCE) in vitro, Assay Code: SC2-, Evaluation Type: Evaluation B (Post-1980)) was “inactive; negative”.

`[Cl][Cr]([Cl])[Cl]` was tested, and the mutagenic call (Species/Cell Type: Bacillus subtilis (H17 vs M45), Assay Type: Rec-assay, spot test, DNA effects (bacterial DNA repair), Assay Code: REW-, Evaluation Type: Evaluation A (Pre-1980)) was “inactive; negative”, the mutagenic call (Species/Cell Type: Human lymphocytes, Assay Type: Sister-chromatid exchange (SCE) in vitro, Assay Code: SCL-, Evaluation Type: Evaluation B (Post-1980)) was “inactive; negative” and the mutagenic call (Species/Cell Type: Human, Assay Type: Sister-chromatid exchange (SCE) in vitro, Assay Code: SC1-, Evaluation Type: Evaluation B (Post-1980)) was “inactive; negative”. For the same compound, the mutagenic call (Species/Cell Type: Mammalian oocytes or early embryo, Assay Type: Chromosome aberrations in vivo, Assay Code: CYO-, Evaluation Type: Evaluation A (Pre-1980)) was “inactive; negative”, the mutagenic call [3] was “active; positive” and the mutagenic call [6] was “no conclusion”. The mutagenic call [7] was “no conclusion”.

For `C#C[C@]1(O)CC[C@H]2[C@@H]3CCc4cc(OC)ccc4[C@H]3CC[C@@]21C`, the call [2] was “active; positive”.

In the case of `CC(=O)Nc1nc(/C=C/c2ccc([N+](=O)[O-])o2)cs1`, the mutagenic call (Species/Cell Type: Salmonella typhimurium (one or more of the five standard strains: TA98, TA100, TA1535, TA1537, and TA1538), Assay Type: Histidine reverse gene mutation, Ames assay, Assay Code: SAL+, Evaluation Type: Evaluation A (Pre-1980)) is reported as “active; positive”.

With `COc1nc2c(c(=O)n(C)c(=O)n2C)n1C` the mutagenic call (Species/Cell Type: Allium cepa, Assay Type: Chromosome aberrations, Assay Code: ALC+D, Dose Response: With dose response, Evaluation Type: Evaluation A (Pre-1980)) was “active; positive” and the mutagenic call [8] was “active; positive”.

With `CCN(CCCCO)N=O` the mutagenic call [7] was “no conclusion”.

With `O=C(O)[C@@H]1CCCN1[N+](=O)[O-]` the mutagenic call [7] was “no conclusion”.

In the case of `Nc1c(Cl)cc([N+](=O)[O-])cc1Cl`, the mutagenic call (Species/Cell Type: Aspergillus nidulans, Assay Type: Aneuploidy, chromosome aberrations, Assay Code: ASNT, Evaluation Type: Evaluation A (Pre-1980)) is reported as “no conclusion”, the mutagenic call (Species/Cell Type: Bacillus subtilis (H17 vs M45), Assay Type: Rec-assay, spot test, DNA effects (bacterial DNA repair), Assay Code: REWT, Evaluation Type: Evaluation A (Pre-1980)) is reported as “no conclusion” and the mutagenic call (Species/Cell Type: Hordeum vulgare (barley), Assay Type: Chromosome aberrations, Assay Code: HOC+, Evaluation Type: Evaluation A (Pre-1980)) is reported as “active; positive”. For the same compound, the mutagenic call [8] was “active; positive”.

With `CC(=O)O[C@H]1C[C@@H]2CC[C@@H]3[C@H](CC[C@@]4(C)[C@H]3C[C@H]([N+]3(C)CCCCC3)[C@@H]4OC(C)=O)[C@@]2(C)C[C@@H]1[N+]1(C)CCCCC1` the mutagenic call [7] was “no conclusion”.

In the case of `Cc1cccc(N=Nc2ccc(N(C)C)cc2)c1`, the mutagenic call (Species/Cell Type: Drosophila melanogaster, Assay Type: Sex-linked recessive lethal gene mutation, Assay Code: SRLT, Evaluation Type: Evaluation A (Pre-1980)) is reported as “no conclusion”, the mutagenic call (Species/Cell Type: Escherichia coli polA (W3110 vs P3478), Assay Type: Rec-assay, DNA effects (bacterial DNA repair), Assay Code: RE2-, Evaluation Type: Evaluation A (Pre-1980)) is reported as “inactive; negative” and the mutagenic call (Species/Cell Type: Escherichia coli polA (W3119 vs P3478), Assay Type: Rec-assay, DNA effects (bacterial DNA repair), Assay Code: RE1T, Evaluation Type: Evaluation A (Pre-1980)) is reported as “no conclusion”. For the same compound, the mutagenic call (Species/Cell Type: Fischer rat embryo (RLV/1706) cells, Assay Type: Cell transformation, viral enhanced, Assay Code: CTR+, Evaluation Type: Evaluation A (Pre-1980)) was “active; positive”, the mutagenic call (Species/Cell Type: Human diploid fibroblasts, Assay Type: Unscheduled DNA synthesis (UDS) in vitro, DNA effects, Assay Code: UDH-, Evaluation Type: Evaluation A (Pre-1980)) was “inactive; negative” and the mutagenic call (Species/Cell Type: Mouse embryo (AKR/ME) cells, Assay Type: Cell transformation, Assay Code: CTK-, Evaluation Type: Evaluation A (Pre-1980)) was “inactive; negative”. The mutagenic call (Species/Cell Type: Neurospora crassa, Assay Type: Forward gene mutation, Assay Code: NEF+, Evaluation Type: Evaluation A (Pre-1980)) was “active; positive”, the call [2] was “active; positive” and the mutagenic call [9] was “active; positive”. For the same compound, the mutagenic call (Species/Cell Type: Nonhuman, Assay Type: Sister-chromatid exchange (SCE) in vivo, Assay Code: SC3+, Evaluation Type: Evaluation B (Post-1980)) was “active; positive”, the mutagenic call (Species/Cell Type: Rat primary hepatocytes, Assay Type: Unscheduled DNA synthesis (UDS) in vitro, DNA effects, Assay Code: UDP+D, Dose Response: With dose response, Evaluation Type: Evaluation A (Pre-1980)) was “active; positive” and the mutagenic call (Species/Cell Type: Saccharomyces cerevisiae, Assay Type: Mitotic recombination or gene conversion, Assay Code: YEH+*, Activation: With metabolic activation, Evaluation Type: Evaluation A (Pre-1980)) was “active; positive”. The mutagenic call (Species/Cell Type: Salmonella typhimurium, Assay Type: Forward and reverse gene mutation, host-mediated assay, Assay Code: HMA-, Evaluation Type: Evaluation A (Pre-1980)) was “inactive; negative” and the mutagenic call (Species/Cell Type: Syrian hamster embryo (SHE) cells, Assay Type: Cell transformation, clonal assay, Assay Code: CTCT, Evaluation Type: Evaluation A (Pre-1980)) was “no conclusion”.

In the case of `CO[C@@H]1[C@H](O)C[C@@H](O[C@@H]2C[C@H](Oc3cc4cc5c(c(O)c4c(O)c3C)C(=O)[C@@H](O[C@H]3C[C@@H](O[C@H]4C[C@@H](O[C@H]6C[C@](C)(O)[C@@H](OC(C)=O)[C@H](C)O6)[C@H](O)[C@@H](C)O4)[C@H](O)[C@@H](C)O3)[C@H]([C@H](OC)C(=O)[C@@H](O)[C@@H](C)O)C5)O[C@H](C)[C@@H]2OC(C)=O)O[C@@H]1C`, the mutagenic call [1] is reported as “active; positive”.

`CSCC[C@H](N)C(=O)O` was tested, and the mutagenic call [4] was “no conclusion”, the mutagenic call [5] was “inactive; negative” and the mutagenic call [6] was “no conclusion”.

With `N#CO` the mutagenic call (Species/Cell Type: Arabidopsis species, Assay Type: Gene mutation, Assay Code: ARM+, Evaluation Type: Evaluation A (Pre-1980)) was “active; positive”.

`O=C1c2ccccc2C(=O)c2c(NCCNCCO)ccc(NCCNCCO)c21` was tested, and the mutagenic call [9] was “active; positive”.

For `Cc1c2c(c(CO)c3ccccc13)[C@H](O)[C@@H](O)c1ccccc1-2`, the mutagenic call (Species/Cell Type: Chinese hamster lung (V79) cells, Assay Type: Forward gene mutation at the HPRT or ouabain locus, Assay Code: V79-*, Activation: With metabolic activation, Evaluation Type: Evaluation A (Pre-1980)) was “inactive; negative” and the call (Species/Cell Type: Nonhuman, Assay Code: CCGT, Evaluation Type: Evaluation A (Pre-1980)) was “no conclusion”.
